Results on one compound are retold here after ChEMBL document CHEMBL1667745, “Synthesis and antibacterial evaluation of novel clarithromycin derivatives with C-4″ elongated arylalkyl groups against macrolide-resistant strains” (2011).

Molecules are shown by their SMILES. ≈ marks a conversion by molar mass, not a printed value.

Common to all, as to format: functional
Assay [1] has as its system Staphylococcus aureus. Briefly: Antimicrobial activity against penicillin-susceptible Staphylococcus aureus P1 by broth microdilution method.
Assay [2] deals with Streptococcus pneumoniae. Briefly: Antimicrobial activity against erythromycin-susceptible Streptococcus pneumoniae ATCC 49619 by broth microdilution method. On the technique in general: In broth dilution the organism is exposed to a series of concentrations in liquid medium.
Assay [3] relates to Streptococcus pyogenes. Briefly: Antimicrobial activity against erythromycin-resistant Streptococcus pyogenes R2 by broth microdilution method.
Assay [4] has as its system Streptococcus pyogenes. Briefly: Antimicrobial activity against erythromycin-susceptible Streptococcus pyogenes S2 by broth microdilution method.
Assay [5] has as its system Streptococcus pneumoniae. Briefly: Antimicrobial activity against erythromycin-resistant Streptococcus pneumoniae B1 expressing the erm gene by broth microdilution method.
The subject of assay [6] is Staphylococcus aureus. Briefly: Antimicrobial activity against erythromycin-susceptible Staphylococcus aureus ATCC 25923 by broth microdilution method.
In assay [7] the test system is Streptococcus pneumoniae. Briefly: Antimicrobial activity against erythromycin-resistant Streptococcus pneumoniae A22072 expressing the mef gene by broth microdilution method.
The subject of assay [8] is Streptococcus pneumoniae. Briefly: Antimicrobial activity against erythromycin-resistant Streptococcus pneumoniae AB11 expressing the erm and mef gene by broth microdilution method.

`CC[C@H]1OC(=O)[C@H](C)[C@@H](O[C@H]2C[C@@](C)(OC)[C@@H](O)[C@H](C)O2)[C@H](C)[C@@H](O[C@@H]2O[C@H](C)C[C@H](N(C)C)[C@H]2O)[C@](C)(O)C[C@@H](C)C(=O)[C@H](C)[C@@H](O)[C@]1(C)O` [ERYTHROMYCIN]: the MIC (as a rule, the least concentration at which growth counts as inhibited) against Staphylococcus aureus [1] was found to be 0.25 µg/mL (≈ 0.341 µM); against Streptococcus pneumoniae [2], 0.03 µg/mL (≈ 0.0409 µM); against Streptococcus pyogenes [3], 4 µg/mL (≈ 5.45 µM); against Streptococcus pyogenes [4] it was 0.03 µg/mL (≈ 0.0409 µM); in the assay with Streptococcus pneumoniae [5], 128 µg/mL (≈ 174 µM); in the assay on Staphylococcus aureus [6], 0.25 µg/mL (≈ 0.341 µM). Also, the figures for the MIC with Streptococcus pneumoniae [7] and in the assay on Streptococcus pneumoniae [8] were 8 µg/mL (≈ 10.9 µM) and 256 µg/mL (≈ 349 µM), respectively.
